Reference: patent publication EP0131252B1, “Thymosin alpha 11” (F. HOFFMANN-LA ROCHE AG, priority 1983, dated 1989)

Columns and labels:
[1] = test system: T cell differentiation and function; assay: In vivo assay systems designed to measure T cell differentiation and function
Description: The present invention relates to the isolation and first complete structural determination of a new polypeptide (thymosin α11 ) isolated from thymosin fraction 5, to pharmaceutically acceptable acid and base addition salts thereof and to pharmaceutical compositions containing this compound or its salts.

Candida albicans = assay: Protection of mice against infection with Candida albicans (daily i.p. treatment, intravenous challenge); assay type: in vivo
Description: The biological activity of thymosin a1 can be determined by utilizing in vivo assays known in the art. Thus, for example, inbred strains of mice are known to vary in their susceptibility to infection with C. albicans. Thus, mice of such strains as C3 H/HeJ or CBA/CaJ are highly susceptible to infection, whereas mice of such strains as C57 BI/10SNJ or C57BI/KsJ were highly resistant to challenge. Since resistance to infection with C. albicans is associated with cell-mediated processes, and therefore with T-lymphocytes, thymic hormones should have an effect on the host response.
Thymosin fraction 5, thymosin a1 or α11 was injected daily i.p. in graded doses into three different groups of mice, beginning two days before intravenous challenge with 4x10^4 cells of Candida albicans.
Mice were treated daily with the indicated doses of thymosin fraction 5, thymosin a1 or thymosin α11 and challenged with 4x 10^4 cells of C. a/bicans two days after the start of treatment
^* Three mice from each set were sacrificed on days 7,14 and 21 after infection and the values represent
the average number of organisms in the left kidneys of the nine mice in each set.

Substance: AcSer-Asp-Ala-Ala-Val-Asp-Thr-Ser-Ser-Glu-ile-Thr-Thr-Lys-Asp-Leu-Lys-Glu-Lys-Lys-Glu-Val-Val-Glu-Glu-Ala-Glu-Asn-Gly-Arg-Glu-Ala-Pro-Ala-AsnOH [thymosin α11]
- biological activity compared with thymosin a1 [1]: same qualitative and quantitative biological activity as thymosin a1
- potency relative to fraction 5 in ability to induce resistance to infection with C. albicans (Candida albicans; compared on optimum daily doses): about 30 times
- daily doses at which most active (Candida albicans; i.p., daily, resistance to infection with C. albicans): 160-320 ng per mouse
- protection in comparison with control mice (Candida albicans; injected daily i.p. in graded doses, beginning two days before intravenous challenge with 4x10^4 cells of Candida albicans): provided protection
- potency of thymosin a1 and thymosin α11 relative to each other (Candida albicans; resistance to infection with C. albicans): approximately equal in potency
